# Assay results published in patent publication US6524330B1, “Method of ocular treatment” (priority 2000, dated 2003).
# “Also recorded” adds a separate entry of the source.
# Key:
# [1] = test system: choriocapillaris
# Protocol: Immediately after the second fluorescein examination, eyes were enucleated and fixed in 2% paraformaldehyde and 3% glutaraldehyde for 24 h. The areas of PDT treatment were surgically excised and specimens were dehydrated in ethanol, embedded in resin, subjected to serial sectioning and staining with 1% toluidine blue for light microscopy.
# [2] = test system: choriocapillaris; test: Photodynamic therapy with hypocrellin A in rabbit eyes, red laser (647 nm), funduscopy and angiography; type: in vivo, Rabbits (Dutch belted pigmented); details: 647 nm (red laser); dose of 500 μg/kg systemically; any of the power levels or durations tested
# Protocol: (§1) Rabbits (twenty-five Dutch belted pigmented, 2-3 kg body weight), were administered hypocrellin A (Molecular Probes, Eugene, Oreg.) by systemic injection into the ear vein. Animals were anesthetized by intramuscular injection of ketamine hydrochloride (50 mg/kg) and xylazine hydrochloride (5 mg/kg). Pupils were dilated with 2.5% phenylephrine and 0.5% tropicamide.
# The hypocrellin preparation was administered as an intravenous bolus into the marginal ear vein. […] However, doses in the range of about […] may also be administered. Control animals received vehicle (liposomes without hypocrellin A in a saline solution) only.
# After administration of compound, for example, 10-15 minutes after hypocrellin A administration, PDT was initiated upon application of laser irradiation with a dye laser (Coherent, Palo Alto, Calif.). Prior to light application, a lens with a focal length of 25 cm was placed in front of the laser beam to prevent interference with the slit lamp light path and to enlarge the spot size produced by the 500 μm setting of the laser to 2 mm on the retina. A spot size of 2 mm was used throughout. A plano fundus contact lens was placed on the cornea, with methylcellulose gel as a coupler, to null the refraction of the cornea. Animals were positioned in a stereotactic support attached to the slit lamp to maintain precise alignment. […]
# [3] = cited from earlier work
# [4] = test system: choriocapillaris; test: Photodynamic therapy with liposomal hypocrellin A in rabbit eyes, yellow laser (568 nm), fundus observation and fluorescein angiography; type: in vivo, Rabbits (Dutch belted pigmented); details: for Fluorescein Angiogram 2 hours post PDT / Fluorescein Angiogram 24 hours post PDT: 568 nm, 500 μg/kg i.v. in liposomes
# Protocol: as §1
# Hypocrellin A was incorporated into liposomes composed of phosphatidylcholine (PC), phosphatidylglycerol (PG), cholesterol, or dipalmitoyl phosphatidylcholine (DPPC), dipalmitoyl phosphatidylglycerol (DPPG) (Avanti Polar Lipids, Pelham, Ala.), with or without cholesterol, using methods known to one of skill in this art. In general, large unilamellar vesicles (LUV) were formed using the reverse phase evaporation method of Szoka and Papahadjopoulos (Proc. Natl. Acad. Sci. USA 1978; 75:4194-4198). Lipids (100 mg PC, 25 mg PG, and optionally 15 mg cholesterol) and 1 mg hypocrellin A were dissolved in chloroform. The solution was placed in a round flask under rotary evaporation (Buschi Laboratoriums-teenik AG, Flawil, Schewiz) to make a thin film. The dried material was dissolved in 6 ml chloroform and 12 ml ether.
# The aqueous phase consisted of 4 ml HEPES buffered saline ([…] NaCI, 2 mM KCI, 10 mM HEPES buffer, pH 7.4, 300 mOsm). This was added to the chloroform/ether solution, the flask was filled with nitrogen gas and subjected to ultrasound at 40° C. for two minutes to form a homogeneous emulsion, which was transferred to a rotary evaporator. At pressures below about 400 mm Hg, the emulsion began to bubble extensively as the organic phase was drawn off. […] The foaming emulsion was vented whenever it neared the top of the flask. Progressively higher vacuum was used to maintain foaming. As the process continued, the foaming decreased. At a pressure of about 100 mm Hg, foaming ceased and the procedure was completed. The process yielded large, negatively charged, unilamellar liposomes with HEPES buffer encapsulated into the aqueous phase and hypocrellin A incorporated into the bilayers of the liposomes. Before injection, the LUV were filtered through 0.8 μm pores.
# The hypocrellin preparation was administered as an intravenous bolus into the marginal ear vein. The dose of hypocrellin administered was 500 μg/kg in a volume of about 2 ml. However, doses in the range of about […] may also be administered. Control animals received vehicle (liposomes without hypocrellin A in a saline solution) only.
# After administration of compound, for example, 10-15 minutes after hypocrellin A administration, PDT was initiated upon application of laser irradiation with a dye laser (Coherent, Palo Alto, Calif.). Prior to light application, a lens with a focal length of 25 cm was placed in front of the laser beam to prevent interference with the slit lamp light path and to enlarge the spot size produced by the 500 μm setting of the laser to 2 mm on the retina. A spot size of 2 mm was used throughout. A plano fundus contact lens was placed on the cornea, with methylcellulose gel as a coupler, to null the refraction of the cornea. Animals were positioned in a stereotactic support attached to the slit lamp to maintain precise alignment.
# The wavelengths were tested: yellow (568 nm) and red (647 nm). Laser powers were in the range of about 10 mW to about 60 mW. Duration of irradiation was for a minimum of 10 seconds to a maximum of 60 seconds. The photodynamic effect is not only related to the irradiance, but power and duration as well. Fluence (irradiance) is the product of power and duration divided by the spot size, but with a constant spot size, irradiance is a function of power and duration only. Fluence was in the range of 3.2 to 95.5 J/cm^2. […] In one embodiment, the lowest possible power and duration that induce the minimal fluorescein angiographic response is used.
# The irradiations were done in the avascular retina, below the optic disc. […]
# [5] = power 10 mW, duration 10, 20, 30, 40, 50, 60 sec, irradiance 3.2-19.1 J/cm^2, 2 mm spot
# [6] = power 20 mW, duration 10, 20, 30, 40, 50 sec, irradiance 6.4-31.8 J/cm^2
# [7] = power 20 mW, duration 60 sec, irradiance 38.2 J/cm^2
# [8] = power 30 mW, duration 10, 20, 30 sec, irradiance 9.6-28.6 J/cm^2
# [9] = power 30 mW, duration 40, 50, 60 sec, irradiance 38.2-57.3 J/cm^2
# [10] = power 40 mW, duration 10 sec, irradiance 12.7 J/cm^2
# [11] = power 40 mW, duration 20, 30, 40, 50, 60 sec, irradiance 25.4-76.4 J/cm^2
# [12] = power 50 mW, duration 10, 20, 30, 40, 50, 60 sec, irradiance 15.9-95.5 J/cm^2
# [13] = power 60 mW, duration 10 sec, irradiance 19.1 J/cm^2
# [14] = power 60 mW, duration 20 sec, irradiance 38.2 J/cm^2
# [15] = power 60 mW, duration 30 sec, irradiance 57.3 J/cm^2
substance,measurement,setting,value
hypocrellin A,histologic finding by light microscopy 24 hours after laser irradiation,[1]; all eyes that developed angiographic changes,occlusion of the choriocapillaris
same,damage to inner or outer retinal layers,[1]; light microscopy 24 hours after laser irradiation,No damage to inner or outer retinal layers
same,funduscopic or angiographic changes,[2],no demonstrable funduscopic or angiographic changes
same,toxicity in the absence of light,[3],non-toxic
same,retinal changes in the treated area during or immediately after laser irradiation,"[4]; 568 nm (yellow laser), treated rabbits",no retinal changes
same,Fluorescein Angiogram 2 hours post PDT,[4]; [5],no effect; also recorded: No response
same,Fluorescein Angiogram 24 hours post PDT,[4]; [5],no effect; also recorded: No response
same,Fluorescein Angiogram 2 hours post PDT,[4]; [6],no effect; also recorded: No response
same,Fluorescein Angiogram 24 hours post PDT,[4]; [6],no effect; also recorded: No response
same,Fluorescein Angiogram 2 hours post PDT,[4]; [7],No response
same,Fluorescein Angiogram 24 hours post PDT,[4]; [7],minimal response; also recorded: Minimal H
same,Fluorescein Angiogram 2 hours post PDT,[4]; [8],No response
same,Fluorescein Angiogram 24 hours post PDT,[4]; [8],No response
same,Fluorescein Angiogram 2 hours post PDT,[4]; [9],No response
same,Fluorescein Angiogram 24 hours post PDT,[4]; [9],fluorescence effect was seen and H
same,Fluorescein Angiogram 2 hours post PDT,[4]; [10],No response
same,Fluorescein Angiogram 24 hours post PDT,[4]; [10],No response
same,Fluorescein Angiogram 2 hours post PDT,[4]; [11],no effect; also recorded: No response
same,Fluorescein Angiogram 24 hours post PDT,[4]; [11],fluorescence effect and H
same,Fluorescein Angiogram 2 hours post PDT,[4]; [12],No response
same,Fluorescein Angiogram 24 hours post PDT,[4]; [12],fluorescence effect was observed and H
same,Fluorescein Angiogram 2 hours post PDT,[4]; [13],No response
same,Fluorescein Angiogram 24 hours post PDT,[4]; [13],response visible on the angiogram and fluorescence effect and H
same,Fluorescein Angiogram 2 hours post PDT,[4]; [14],fluorescence effect was seen and H
same,Fluorescein Angiogram 24 hours post PDT,[4]; [14],fluorescence effect was seen and H
same,Fluorescein Angiogram 2 hours post PDT,[4]; [15],fluorescence effect was seen and H
same,Fluorescein Angiogram 24 hours post PDT,[4]; [15],fluorescence effect was seen and H
